From PubChem BioAssay (NCI)
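Growth conditions: 96-well plates. Treatment: test compound, 48 hours, 5 concentrations. Analysis: linear interpolation between bracketing concentrations; unreached endpoints set to highest concentration. TGI: concentration producing complete growth inhibition.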

Key:
Assay in all cases: growth of human tumour cells (NCI), 48 h
[1] = tested on: ACHN renal
[2] = tested on: SK-MEL-5 melanoma
[3] = tested on: SF-268 CNS
[4] = tested on: MALME-3M melanoma
[5] = tested on: HCT-15 colon
[6] = tested on: SF-539 CNS
[7] = tested on: HOP-92 NSCLC
[8] = tested on: HOP-18 NSCLC
[9] = tested on: OVCAR-4 ovarian
[10] = tested on: SNB-19 CNS
[11] = tested on: NCI-H23 lung
[12] = tested on: CCRF-CEM leukemia
[13] = tested on: HS 578T breast
[14] = tested on: SNB-75 CNS
[15] = tested on: RXF 393 renal
[16] = tested on: NCI-H460 lung
[17] = tested on: LXFL 529 NSCLC
[18] = tested on: LOX IMVI melanoma
[19] = tested on: SNB-78 CNS
[20] = tested on: MDA-MB-435
[21] = tested on: IGROV1 ovarian
[22] = tested on: XF 498 CNS
[23] = tested on: OVCAR-8 ovarian
[24] = tested on: NCI/ADR-RES ovarian
[25] = tested on: UACC-62 melanoma
[26] = tested on: HCC-2998 colon
[27] = tested on: DU-145 prostate
[28] = tested on: HL-60(TB) leukemia
[29] = tested on: NCI-H522 lung
[30] = tested on: HCT-116 colon
[31] = tested on: KM12 colon
[32] = tested on: HT29 colon
[33] = tested on: UACC-257 melanoma
[34] = tested on: BT-549 breast
[35] = tested on: DMS 114 small cell lung
[36] = tested on: COLO 205 colon
[37] = tested on: K-562 leukemia
[38] = tested on: SW-620 colon
[39] = tested on: PC-3 prostate
[40] = tested on: MCF7 breast
[41] = tested on: SN12C renal
[42] = tested on: TK-10 renal
[43] = tested on: MOLT-4 leukemia
[44] = tested on: M19-MEL melanoma
[45] = tested on: MDA-MB-231 breast
[46] = tested on: U251 CNS
[47] = tested on: NCI-H226 lung
[48] = tested on: SF-295 CNS
[49] = tested on: HOP-62 NSCLC
[50] = tested on: DLD-1 colon
[51] = tested on: RPMI-8226 leukemia
[52] = tested on: OVCAR-3 ovarian
[53] = tested on: DMS 273 small cell lung
[54] = tested on: OVCAR-5 ovarian
[55] = tested on: 786-0 renal
[56] = tested on: T-47D breast
[57] = tested on: SK-MEL-2 melanoma
[58] = tested on: A549 NSCLC
[59] = tested on: SK-MEL-28 melanoma
[60] = tested on: M14 melanoma
[61] = tested on: MDA-N
[62] = tested on: A498 renal
[63] = tested on: SK-OV-3 ovarian
[64] = tested on: UO-31 renal
[65] = tested on: EKVX NSCLC
[66] = tested on: SR leukemia
[67] = tested on: CAKI-1 renal
[68] = tested on: KM20L2 colon

O=c1cc(-c2cccnc2)[nH]c2cc3c(cc12)OCO3
TGI [1]: > 100 µM
TGI [2]: 23.9 µM
TGI [3]: > 100 µM
TGI [4]: > 26 µM
TGI [5]: > 64.3 µM
TGI [6]: 17.7 µM
TGI [7]: > 100 µM
TGI [8]: 84.1 µM
TGI [9]: > 100 µM
TGI [10]: 79.6 µM
TGI [11]: > 53.5 µM
TGI [12]: > 100 µM
TGI [13]: 69.6 µM
TGI [14]: 27.1 µM
TGI [15]: > 96.3 µM
TGI [16]: > 100 µM
TGI [17]: 26.8 µM
TGI [18]: > 100 µM
TGI [19]: > 100 µM
TGI [20]: 4.6 µM
TGI [21]: > 28.1 µM
TGI [22]: 72.7 µM
TGI [23]: > 95.3 µM
TGI [24]: 40 µM
TGI [25]: > 100 µM
TGI [26]: 19.4 µM
TGI [27]: > 100 µM
TGI [28]: 31.9 µM
TGI [29]: > 21.6 µM
TGI [30]: > 100 µM
TGI [31]: > 100 µM
TGI [32]: 59.3 µM
TGI [33]: > 100 µM
TGI [34]: > 100 µM
TGI [35]: > 100 µM
TGI [36]: > 100 µM
TGI [37]: > 100 µM
TGI [38]: > 100 µM
TGI [39]: > 100 µM
TGI [40]: > 100 µM
TGI [41]: > 100 µM
TGI [42]: > 100 µM
TGI [43]: > 100 µM
TGI [44]: > 100 µM
TGI [45]: > 100 µM
TGI [46]: 30.8 µM
TGI [47]: > 89.6 µM
TGI [48]: > 38.5 µM
TGI [49]: 58.8 µM
TGI [50]: > 100 µM
TGI [51]: > 100 µM
TGI [52]: > 20.7 µM
TGI [53]: > 100 µM
TGI [54]: > 100 µM
TGI [55]: > 100 µM
TGI [56]: > 100 µM
TGI [57]: > 100 µM
TGI [58]: > 100 µM
TGI [59]: > 100 µM
TGI [60]: > 100 µM
TGI [61]: 5.71 µM
TGI [62]: > 69.9 µM
TGI [63]: > 67 µM
TGI [64]: > 100 µM

CCN(CC)c1oc(N(CC)CC)c(C(=O)Nc2ccccn2)c(=O)c1C(C)=O
TGI [1]: > 100 µM
TGI [2]: > 100 µM
TGI [65]: > 100 µM
TGI [3]: > 100 µM
TGI [4]: > 100 µM
TGI [5]: > 100 µM
TGI [6]: > 100 µM
TGI [7]: > 100 µM
TGI [10]: > 100 µM
TGI [11]: > 100 µM
TGI [12]: > 100 µM
TGI [14]: > 100 µM
TGI [16]: > 100 µM
TGI [17]: > 100 µM
TGI [19]: > 100 µM
TGI [21]: > 100 µM
TGI [22]: > 100 µM
TGI [23]: > 100 µM
TGI [25]: > 100 µM
TGI [29]: > 100 µM
TGI [30]: > 100 µM
TGI [31]: > 100 µM
TGI [32]: > 100 µM
TGI [35]: > 100 µM
TGI [36]: > 100 µM
TGI [66]: > 100 µM
TGI [67]: > 100 µM
TGI [37]: > 100 µM
TGI [38]: > 100 µM
TGI [41]: > 100 µM
TGI [42]: > 100 µM
TGI [43]: > 100 µM
TGI [44]: > 100 µM
TGI [46]: > 100 µM
TGI [47]: > 100 µM
TGI [49]: > 100 µM
TGI [50]: > 100 µM
TGI [51]: > 100 µM
TGI [52]: > 100 µM
TGI [53]: > 100 µM
TGI [54]: > 100 µM
TGI [55]: > 100 µM
TGI [57]: > 100 µM
TGI [58]: > 100 µM
TGI [59]: > 100 µM
TGI [60]: > 100 µM
TGI [62]: > 100 µM
TGI [63]: > 100 µM
TGI [64]: > 100 µM

COC(=O)C12OC3CO[Si](C(C)C)(C(C)C)O[Si](C(C)C)(C(C)C)OC3C1Oc1nc(=O)ccn12 (stereo unspecified)
TGI [1]: 32.2 µM
TGI [2]: 29.7 µM
TGI [65]: 30.7 µM
TGI [3]: 24.6 µM
TGI [4]: 28.1 µM
TGI [5]: 30.1 µM
TGI [6]: 30.2 µM
TGI [7]: 27.7 µM
TGI [9]: 30.8 µM
TGI [10]: 31.2 µM
TGI [11]: 29 µM
TGI [12]: 41 µM
TGI [13]: 7.3 µM
TGI [15]: 30.6 µM
TGI [18]: 31.6 µM
TGI [20]: 31.3 µM
TGI [21]: 24 µM
TGI [23]: 29 µM
TGI [24]: 29.2 µM
TGI [25]: 27.4 µM
TGI [27]: 32.5 µM
TGI [28]: 72.9 µM
TGI [30]: 29.6 µM
TGI [31]: 29.2 µM
TGI [32]: 29.3 µM
TGI [33]: 29.1 µM
TGI [34]: 32.1 µM
TGI [36]: 32.9 µM
TGI [66]: 32 µM
TGI [67]: 31.7 µM
TGI [37]: 30.6 µM
TGI [38]: 30 µM
TGI [39]: 29.2 µM
TGI [40]: 29.4 µM
TGI [41]: 32 µM
TGI [42]: 30.9 µM
TGI [43]: 30.8 µM
TGI [45]: 29.5 µM
TGI [46]: 29.6 µM
TGI [47]: 30.4 µM
TGI [48]: 29.6 µM
TGI [49]: 32.2 µM
TGI [51]: 30.8 µM
TGI [52]: 29.3 µM
TGI [54]: 28.6 µM
TGI [55]: 31.6 µM
TGI [56]: 33 µM
TGI [57]: 31.6 µM
TGI [58]: 28.6 µM
TGI [59]: 30.4 µM
TGI [60]: 32.3 µM
TGI [61]: 32.7 µM
TGI [62]: 38.8 µM
TGI [63]: 31.1 µM
TGI [64]: 29.9 µM

O=C1c2ccccc2N2Oc3ccccc3C12c1ccccc1 (stereo unspecified)
TGI [1]: > 100 µM
TGI [2]: > 100 µM
TGI [65]: > 100 µM
TGI [3]: > 100 µM
TGI [4]: > 100 µM
TGI [5]: > 100 µM
TGI [6]: > 100 µM
TGI [7]: > 100 µM
TGI [8]: > 100 µM
TGI [9]: > 100 µM
TGI [10]: > 100 µM
TGI [11]: > 100 µM
TGI [12]: > 100 µM
TGI [14]: > 100 µM
TGI [15]: > 100 µM
TGI [17]: > 100 µM
TGI [19]: > 100 µM
TGI [21]: > 100 µM
TGI [23]: > 100 µM
TGI [25]: > 100 µM
TGI [26]: > 100 µM
TGI [28]: > 100 µM
TGI [29]: > 100 µM
TGI [30]: > 100 µM
TGI [32]: > 100 µM
TGI [33]: > 100 µM
TGI [35]: > 100 µM
TGI [36]: > 100 µM
TGI [66]: > 100 µM
TGI [37]: > 100 µM
TGI [38]: > 100 µM
TGI [41]: > 100 µM
TGI [68]: > 100 µM
TGI [43]: > 100 µM
TGI [44]: > 100 µM
TGI [46]: > 100 µM
TGI [47]: > 100 µM
TGI [48]: > 100 µM
TGI [49]: > 100 µM
TGI [51]: > 100 µM
TGI [53]: > 100 µM
TGI [55]: > 100 µM
TGI [58]: > 100 µM
TGI [59]: > 100 µM
TGI [60]: > 100 µM
TGI [62]: > 100 µM
TGI [63]: > 100 µM
TGI [64]: > 100 µM
